According to US11773188B2, “Chitosan-derived compositions” (Immunophotonics, Inc, priority 2012, dated 2023):
Like-named read-outs stand apart in the source and are kept apart here.

Assays:
breast cancer = system: breast cancer
Description: In one exemplary clinical study, two breast cancer patients received cyclophosphamide weekly (after inCVAX treatment) at a dose of between 150 and 200 mg/m^2. […] The patients continued to receive the low dose chemotherapy.

[1] = system: DMBA-4 transplantable, metastatic mammary tumor; assay: Different components of laser-assisted immunotherapy in metastatic breast tumor-bearing rats; assay type: in vivo, Wistar Furth rats; settings: 0.25% ICG injection only, 0.2 mL intratumoral; 12 rats; all rats dying
Description: The laser-assisted immunotherapy system consisted of a near-infrared laser diode laser with a maximum output of 25 W; the laser-absorbing dye, indocyanine green; and the immunoadjuvant, glycated chitosan. When the primary tumor was 0.2 to 0.5 cm^3, treatment was initiated in the tumor-bearing rats. A solution of 0.2 mL of GC and/or ICG was injected into the center of the primary tumor in all groups. In rats receiving laser treatment, the injections occurred 2 h before irradiation, with animals anesthetized and the hair overlaying the tumor clipped. The laser settings were 2 W and 10 min, with the laser fiber tip maintained a distance of 4 mm from the overlying skin and the laser energy directed to the treatment sites through optical fibers. The animals were individually housed following treatment. In the survival studies, the breast or prostate tumor-bearing rats were observed daily and the three dimensions of each tumor were measured weekly. Female Wistar Furth rats (5 to 6 weeks of age, 100 to 125 g) were subcutaneously inoculated with the DMBA-4 transplantable, metastatic mammary tumor (10^5 viable tumor cells) into one inguinal fat pad of each rat. The primary tumor emerged 7 to 10 days after inoculation. […] The survival rate and primary and metastatic tumor profiles were determined for the individual components and various combinations of the components.

[2] = system: Line 1 lung adenocarcinoma; settings: no GC, 8 mice
Description: To evaluate photodynamic therapy as a the method for direct tumor destruction in combination with glycated chitosan, a combination of photofrin- and meso-substituted tetra (meta-hydroxy-phenyl) chlorin-(mTHPC) based photodynamic therapy and glycated chitosan injection was been studied in the EMT6 mammary sarcoma and Line 1 lung adenocarcinoma mouse models, respectively. In each model, BALB/c mice were subcutaneously inoculated with 10^6 viable tumor cells into the lower dorsal area. Tumors were treatment size (7 to 8 mm) after 7 days.
A 0.1 mg/kg dose of mTHPC was intravenously administered 24 h prior to irradiation. Animals were shielded from direct light immediately after the photosensitizer injection until 3 days after photodynamic treatment. Mice were restrained anaesthetized in holders exposing their backs during light treatment. A 652 nm light from a 0.25 W diode laser was delivered through an 8 mm diameter liquid light guide. The power density was set at 110 mW/cm^2, fora total light dose of 30 J/cm^2.

EMT6 mammary sarcoma = assay: Photofrin-based photodynamic therapy and glycated chitosan in EMT6 model; assay type: in vivo, BALB/c mice; settings: 8 mice
Description: In each model, BALB/c mice were subcutaneously inoculated with 10^6 viable tumor cells into the lower dorsal area. Tumors were treatment size (7 to 8 mm) after 7 days.
In the EMT6 mammary sarcoma model, treatment groups evaluated are detailed in the table below. Photofrin (Mont-Saint-Hilaire, Quebec, Canada) was prepared in 5% sterile dextrose to a 1 mg/mL concentration. A 5 mg/kg dose of photofrin was intravenously administered 24 h prior to irradiation. Animals were shielded from direct light immediately after the photosensitizer injection until 3 days after photodynamic treatment. Mice were restrained anaesthetized in holders exposing their backs during light treatment. Light (630 nm) was delivered through an 8 mm diameter liquid light guide. The power density was set at 100 mW/cm^2, for a total light dose of 60 J/cm^2. Immediately after light irradiation, if applicable, animals were administered a peritumoral dose of 0.5 or 1.5% glycated chitosan.

[3] = weekly 150-200 mg/m^2 after inCVAX treatment, two breast cancer patients

Compound: CC(=O)O[C@H]1C(=O)[C@@]2(C)[C@H]([C@H](OC(=O)c3ccccc3)[C@]3(O)C[C@H](OC(=O)[C@H](O)[C@@H](NC(=O)c4ccccc4)c4ccccc4)C(C)=C1C3(C)C)[C@]1(OC(C)=O)CO[C@@H]1C[C@@H]2O [Paclitaxel]
- tumor response (breast cancer; weekly 75 mg/m^2 after response to cyclophosphamide slowed): the response was very good with shrinking tumors

Compound: O=P1(N(CCCl)CCCl)NCCCO1 (centres unmarked) [cyclophosphamide]
- adverse reactions (breast cancer; [3]): minimal adverse reactions
- tumor response (breast cancer; [3]): responded well to the treatment with tumor shrinkage

Compound: CC1(C)C(/C=C/C=C/C=C/C=C2\N(CCCCS(=O)(=O)O)c3ccc4ccccc4c3C2(C)C)=[N+](CCCCS(=O)(=O)[O-])c2ccc3ccccc3c21 [indocyanine green]
- survival after single component treatment [1]: average survival times similar to the control group

Compound: Oc1cccc(-c2c3nc(c(-c4cccc(O)c4)c4ccc([nH]4)c(-c4cccc(O)c4)c4nc(c(-c5cccc(O)c5)c5ccc2[nH]5)CC4)C=C3)c1 [mTHPC, meso-substituted tetra (meta-hydroxy-phenyl) chlorin]
- Number of Long-Term Surviving Mice ([2]; Laser (652 nm, 30 J/cm^2) + mTHPC 0.1 mg/kg i.v. 24 h before): 0
- Long-term Survival Rate ([2]; Laser + mTHPC 0.1 mg/kg i.v.): 0.0%

Compound: Photofrin
- Number of Long-Term Surviving Mice (EMT6 mammary sarcoma; Non-Thermal Laser + Photofrin 5 mg/kg i.v. 24 h before 630 nm light 60 J/cm^2): 3
- Long-term Survival Rate (EMT6 mammary sarcoma; Non-Thermal Laser + Photofrin 5 mg/kg i.v., no GC): 37.5%
